According to ChEMBL document CHEMBL5233266, “β-Carboline as a Privileged Scaffold for Multitarget Strategies in Alzheimer's Disease Therapy” (J Med Chem, 2021):
pIC50, pKi: −log10 of the molar value. Values joined by “and” are separate entries in the source; they are usually repeats but may differ in a detail not shown here. Identical values can stand only once. Each block holds one molecule with its values, some of them ahead of it.

What was measured:
[1] = target: T1, Amine oxidase [flavin-containing] A (Homo sapiens, UniProt P21397); experiment: Inhibition of MAO-A (unknown origin)
T1 sequence (P21397 whole entry): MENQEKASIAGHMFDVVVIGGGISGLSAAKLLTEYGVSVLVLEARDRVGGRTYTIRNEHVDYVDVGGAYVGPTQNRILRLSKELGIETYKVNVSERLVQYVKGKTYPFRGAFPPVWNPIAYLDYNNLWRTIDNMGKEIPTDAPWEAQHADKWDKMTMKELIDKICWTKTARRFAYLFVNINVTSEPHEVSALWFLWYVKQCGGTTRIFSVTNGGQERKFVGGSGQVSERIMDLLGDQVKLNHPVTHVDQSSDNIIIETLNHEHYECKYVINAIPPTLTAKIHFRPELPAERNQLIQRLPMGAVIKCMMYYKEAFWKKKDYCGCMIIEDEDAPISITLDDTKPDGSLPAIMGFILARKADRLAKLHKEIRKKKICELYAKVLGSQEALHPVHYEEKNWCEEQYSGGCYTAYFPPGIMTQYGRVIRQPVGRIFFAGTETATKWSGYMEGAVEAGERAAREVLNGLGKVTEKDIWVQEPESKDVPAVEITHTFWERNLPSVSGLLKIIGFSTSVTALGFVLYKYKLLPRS

Acetylcholinesterase [2] = target: T2, Acetylcholinesterase (Homo sapiens, UniProt P22303); experiment: Inhibition of AChE (unknown origin) using acetylthiocholine iodide as substrate incubated for 20 mins followed by substrate addition by Ellman's method
Cholinesterase [3] = target: T3, Cholinesterase (Homo sapiens, UniProt P06276); experiment: Inhibition of BuChE (unknown origin) using acetylthiocholine iodide as substrate incubated for 20 mins followed by substrate addition by Ellman's method
[4] = target: 5-hydroxytryptamine receptor 2B (Homo sapiens, UniProt P41595); experiment: Binding affinity to 5-HT2B (unknown origin) assessed as equilibrium binding constant
[5] = target: 5-hydroxytryptamine receptor 2B (Rattus norvegicus, UniProt P30994); experiment: Displacement of [3H]-ketanserin from rat 5-HT2B expressed in mouse NIH/3T3 cells assessed as inhibition constant by Cheng-Prusoff equation analysis; type: cell-based
Acetylcholinesterase [6] = target: T2, Acetylcholinesterase; experiment: Inhibition of AChE (unknown origin) incubated for 40 mins by Ellman's method
[7] = target: GABA-A receptor; anion channel; experiment: Inhibition of GABAA receptor (unknown origin); type: protein-complex assay, Homo sapiens
[8] = target: T4, Gamma-aminobutyric acid receptor subunit alpha-3 (Homo sapiens, UniProt P34903); experiment: Binding affinity to human recombinant GABAA alpha3 receptor assessed as inhibition constant incubated for 1 hrs by liquid scintillation counting analysis
T4 sequence (P34903 whole entry): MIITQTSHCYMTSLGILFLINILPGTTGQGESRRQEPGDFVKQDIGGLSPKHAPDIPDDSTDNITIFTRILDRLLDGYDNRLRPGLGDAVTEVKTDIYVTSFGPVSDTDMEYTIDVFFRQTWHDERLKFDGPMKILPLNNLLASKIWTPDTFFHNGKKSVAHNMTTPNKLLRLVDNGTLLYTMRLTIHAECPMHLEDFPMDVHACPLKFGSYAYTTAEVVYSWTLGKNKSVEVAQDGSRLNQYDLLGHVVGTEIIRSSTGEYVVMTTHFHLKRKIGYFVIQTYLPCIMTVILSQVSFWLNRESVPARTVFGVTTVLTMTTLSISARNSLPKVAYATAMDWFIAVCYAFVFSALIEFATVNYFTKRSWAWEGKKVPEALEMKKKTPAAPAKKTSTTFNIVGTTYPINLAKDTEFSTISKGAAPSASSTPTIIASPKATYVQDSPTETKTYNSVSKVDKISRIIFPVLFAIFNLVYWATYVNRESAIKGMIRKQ

[9] = target: T5, Gamma-aminobutyric acid receptor subunit alpha-1 (Homo sapiens, UniProt P14867); experiment: Binding affinity to human recombinant GABAA alpha1 receptor assessed as inhibition constant incubated for 1 hrs by liquid scintillation counting analysis
T5 sequence (P14867 whole entry): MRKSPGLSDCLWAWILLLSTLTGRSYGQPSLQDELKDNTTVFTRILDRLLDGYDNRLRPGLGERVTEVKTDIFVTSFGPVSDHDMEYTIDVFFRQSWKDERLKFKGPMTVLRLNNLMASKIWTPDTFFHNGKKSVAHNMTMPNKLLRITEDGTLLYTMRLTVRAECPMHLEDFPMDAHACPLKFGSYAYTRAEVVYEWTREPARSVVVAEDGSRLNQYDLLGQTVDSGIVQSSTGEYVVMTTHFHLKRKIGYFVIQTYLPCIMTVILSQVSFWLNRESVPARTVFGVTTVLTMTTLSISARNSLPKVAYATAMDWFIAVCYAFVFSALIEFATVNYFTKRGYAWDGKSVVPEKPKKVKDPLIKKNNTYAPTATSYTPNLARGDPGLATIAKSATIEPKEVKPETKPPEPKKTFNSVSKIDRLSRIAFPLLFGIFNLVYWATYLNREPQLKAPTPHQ

[10] = target: Gamma-aminobutyric acid receptor subunit alpha-4 (Homo sapiens, UniProt P48169); experiment: Binding affinity to human recombinant GABAA alpha4 receptor assessed as inhibition constant incubated for 1 hrs by liquid scintillation counting analysis
[11] = target: T6, Gamma-aminobutyric acid receptor subunit alpha-5 (Homo sapiens, UniProt P31644); experiment: Binding affinity to human recombinant GABAA alpha5 receptor assessed as inhibition constant incubated for 1 hrs by liquid scintillation counting analysis
T6 sequence (P31644 whole entry): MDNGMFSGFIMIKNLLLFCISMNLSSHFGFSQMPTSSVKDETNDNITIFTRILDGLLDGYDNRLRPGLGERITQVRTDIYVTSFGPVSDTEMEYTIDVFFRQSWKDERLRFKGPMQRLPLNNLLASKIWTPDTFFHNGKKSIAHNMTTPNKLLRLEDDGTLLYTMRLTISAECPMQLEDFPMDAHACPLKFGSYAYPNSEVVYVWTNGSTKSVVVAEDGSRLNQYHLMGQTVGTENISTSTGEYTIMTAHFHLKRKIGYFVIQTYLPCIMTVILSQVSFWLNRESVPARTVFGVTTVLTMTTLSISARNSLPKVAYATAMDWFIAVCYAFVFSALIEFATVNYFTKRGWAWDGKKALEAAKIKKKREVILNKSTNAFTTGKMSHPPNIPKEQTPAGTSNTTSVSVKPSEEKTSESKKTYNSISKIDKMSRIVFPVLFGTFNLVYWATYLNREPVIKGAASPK

[12] = target: Gamma-aminobutyric acid receptor subunit alpha-6 (Homo sapiens, UniProt Q16445); experiment: Binding affinity to human recombinant GABAA alpha6 receptor assessed as inhibition constant incubated for 1 hrs by liquid scintillation counting analysis
Acetylcholinesterase [13] = target: T2, Acetylcholinesterase; experiment: Inhibition of AChE (unknown origin)
Cholinesterase [14] = target: T3, Cholinesterase; experiment: Inhibition of BuChE (unknown origin)

Chain of 5-hydroxytryptamine receptor 2B (Rattus norvegicus, UniProt P30994) (P30994 whole entry): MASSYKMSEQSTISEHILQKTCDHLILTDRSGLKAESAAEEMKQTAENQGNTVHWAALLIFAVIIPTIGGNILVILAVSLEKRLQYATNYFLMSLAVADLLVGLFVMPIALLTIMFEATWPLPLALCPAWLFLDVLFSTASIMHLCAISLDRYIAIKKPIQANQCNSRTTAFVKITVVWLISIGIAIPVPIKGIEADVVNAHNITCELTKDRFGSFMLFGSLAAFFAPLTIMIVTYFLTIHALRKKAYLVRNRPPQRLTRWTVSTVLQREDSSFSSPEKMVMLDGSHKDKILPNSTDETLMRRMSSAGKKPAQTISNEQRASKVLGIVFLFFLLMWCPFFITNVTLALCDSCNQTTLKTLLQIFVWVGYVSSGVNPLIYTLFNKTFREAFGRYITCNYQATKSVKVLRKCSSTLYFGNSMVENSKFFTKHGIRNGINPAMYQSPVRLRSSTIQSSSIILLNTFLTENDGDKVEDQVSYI
T3 sequence (P06276 whole entry): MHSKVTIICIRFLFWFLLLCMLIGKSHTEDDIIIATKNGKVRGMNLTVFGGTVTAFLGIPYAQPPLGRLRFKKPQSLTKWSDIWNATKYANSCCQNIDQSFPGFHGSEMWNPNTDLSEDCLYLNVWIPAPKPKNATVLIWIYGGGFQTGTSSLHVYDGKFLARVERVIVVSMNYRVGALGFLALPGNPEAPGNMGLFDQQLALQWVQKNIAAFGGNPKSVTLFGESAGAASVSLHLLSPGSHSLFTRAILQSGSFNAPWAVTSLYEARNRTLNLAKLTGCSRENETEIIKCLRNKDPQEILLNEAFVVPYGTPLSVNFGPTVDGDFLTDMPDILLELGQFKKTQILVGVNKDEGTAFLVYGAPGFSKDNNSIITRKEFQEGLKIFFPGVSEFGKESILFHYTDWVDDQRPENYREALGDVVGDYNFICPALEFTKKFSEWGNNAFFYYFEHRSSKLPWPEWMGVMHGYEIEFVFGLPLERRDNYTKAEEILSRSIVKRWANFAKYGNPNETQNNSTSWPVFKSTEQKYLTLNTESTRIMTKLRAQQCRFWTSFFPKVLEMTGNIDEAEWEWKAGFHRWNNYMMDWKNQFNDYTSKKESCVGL
T2 sequence (P22303 whole entry): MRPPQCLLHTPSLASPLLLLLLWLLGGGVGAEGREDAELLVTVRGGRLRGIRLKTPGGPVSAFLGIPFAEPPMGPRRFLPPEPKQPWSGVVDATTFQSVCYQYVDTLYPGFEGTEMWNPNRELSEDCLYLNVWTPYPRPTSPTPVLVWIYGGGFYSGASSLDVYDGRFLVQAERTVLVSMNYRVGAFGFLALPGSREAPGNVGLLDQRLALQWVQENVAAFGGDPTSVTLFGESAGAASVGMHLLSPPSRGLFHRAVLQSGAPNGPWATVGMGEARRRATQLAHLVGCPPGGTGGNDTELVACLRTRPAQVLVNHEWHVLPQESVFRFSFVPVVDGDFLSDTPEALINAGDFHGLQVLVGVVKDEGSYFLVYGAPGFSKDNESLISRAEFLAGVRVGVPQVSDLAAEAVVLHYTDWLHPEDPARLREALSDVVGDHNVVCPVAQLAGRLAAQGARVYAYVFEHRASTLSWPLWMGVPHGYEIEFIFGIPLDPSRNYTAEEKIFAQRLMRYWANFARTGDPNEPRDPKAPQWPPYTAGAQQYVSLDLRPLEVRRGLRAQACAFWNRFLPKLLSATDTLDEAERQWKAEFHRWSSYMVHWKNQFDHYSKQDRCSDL
Chain of 5-hydroxytryptamine receptor 2B (Homo sapiens, UniProt P41595) (P41595 whole entry): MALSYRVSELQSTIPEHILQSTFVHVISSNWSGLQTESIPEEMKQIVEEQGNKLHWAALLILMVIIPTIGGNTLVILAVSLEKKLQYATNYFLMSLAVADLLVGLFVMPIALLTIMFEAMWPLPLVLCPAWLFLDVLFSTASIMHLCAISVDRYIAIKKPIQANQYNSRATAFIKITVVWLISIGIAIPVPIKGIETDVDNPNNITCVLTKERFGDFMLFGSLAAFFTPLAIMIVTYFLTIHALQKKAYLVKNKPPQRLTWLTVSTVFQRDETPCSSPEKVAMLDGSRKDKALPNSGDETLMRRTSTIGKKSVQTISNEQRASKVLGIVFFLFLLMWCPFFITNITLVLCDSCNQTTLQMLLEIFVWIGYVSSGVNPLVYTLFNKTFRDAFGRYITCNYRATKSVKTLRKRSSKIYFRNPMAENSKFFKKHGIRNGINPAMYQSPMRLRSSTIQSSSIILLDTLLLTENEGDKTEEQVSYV
Chain of Gamma-aminobutyric acid receptor subunit alpha-4 (P48169 whole entry): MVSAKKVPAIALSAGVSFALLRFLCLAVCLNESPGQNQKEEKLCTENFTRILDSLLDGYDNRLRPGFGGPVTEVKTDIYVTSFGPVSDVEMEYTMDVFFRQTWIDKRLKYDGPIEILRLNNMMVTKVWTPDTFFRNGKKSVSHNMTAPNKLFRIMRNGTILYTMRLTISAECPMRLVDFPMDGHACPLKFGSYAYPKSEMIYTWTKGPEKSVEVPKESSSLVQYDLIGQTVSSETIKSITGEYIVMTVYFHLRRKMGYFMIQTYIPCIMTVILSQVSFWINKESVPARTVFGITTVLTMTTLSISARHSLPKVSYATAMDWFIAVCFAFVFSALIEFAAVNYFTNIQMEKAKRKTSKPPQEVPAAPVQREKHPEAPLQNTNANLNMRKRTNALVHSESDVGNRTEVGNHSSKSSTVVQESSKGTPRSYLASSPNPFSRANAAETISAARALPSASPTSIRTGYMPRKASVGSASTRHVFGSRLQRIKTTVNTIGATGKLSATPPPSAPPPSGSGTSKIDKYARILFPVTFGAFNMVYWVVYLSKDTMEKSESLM
Chain of Gamma-aminobutyric acid receptor subunit alpha-6 (Q16445 whole entry): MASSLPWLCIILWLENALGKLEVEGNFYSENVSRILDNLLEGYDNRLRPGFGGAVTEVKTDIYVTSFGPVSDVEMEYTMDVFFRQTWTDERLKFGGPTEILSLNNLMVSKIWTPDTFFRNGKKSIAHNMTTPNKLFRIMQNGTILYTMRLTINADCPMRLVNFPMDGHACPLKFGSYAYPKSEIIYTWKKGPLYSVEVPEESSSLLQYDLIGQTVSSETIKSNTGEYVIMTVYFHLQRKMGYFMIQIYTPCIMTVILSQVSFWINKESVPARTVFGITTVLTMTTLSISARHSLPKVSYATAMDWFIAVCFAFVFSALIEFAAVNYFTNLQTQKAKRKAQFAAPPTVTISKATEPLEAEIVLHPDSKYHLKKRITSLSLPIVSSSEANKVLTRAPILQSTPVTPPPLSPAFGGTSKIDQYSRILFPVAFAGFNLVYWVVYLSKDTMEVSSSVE

pIC50 [1]: 6.59
Structure (SMILES): CCCn1c2cc(OCc3cn(Cc4ccccc4Cl)nn3)ccc2c2ccnc(C)c21

Structure (SMILES): CCCCCCCNC(=O)Oc1ccc2c(c1)CN1CCc3c([nH]c4ccccc34)C1N2C (stereo unspecified)
pIC50 (Acetylcholinesterase [2]): < 5.00 | pIC50 (Cholinesterase [3]): 7.11

Structure (SMILES): Cc1cc2cc3n(c(=O)c2cn1)CCc1c-3[nH]c2ccccc12
pIC50 (Acetylcholinesterase [2]): 4.66 | pIC50 (Cholinesterase [3]): 6.00

Kb [4]: < 0.3 nM | pKi [5]: 10.00
Structure (SMILES): CCc1cccc2[nH]c3c(c12)CCNC3Cc1ccc(OC)c(OC)c1 (stereo unspecified)

Structure (SMILES): Cn1c2c(c3ccccc31)CC[N+](c1ccc(Br)cc1Br)=C2
pIC50 (Acetylcholinesterase [6]): < 5.00

Structure (SMILES): Cc1nccc2c1[nH]c1cc(OCCCC(F)(F)F)ccc12
pIC50 [1]: 8.30

Structure (SMILES): Cn1c2c(c3ccccc31)CC[N+](c1ccc(Br)cc1)=C2
pIC50 (Acetylcholinesterase [6]): 5.82

pIC50 [1]: 7.52
Structure (SMILES): COCc1ccc2c(c1)[nH]c1c(C)nccc12

Structure (SMILES): Cn1c2c(c3ccccc31)CC[N+](c1ccc(I)cc1)=C2
pIC50 (Acetylcholinesterase [6]): 5.82

pIC50 [1]: 8.30
Structure (SMILES): Cc1nccc2c1[nH]c1cc(OCCc3ccccc3)ccc12

Structure (SMILES): O=C(CCN1CCCC1)Nc1ccc2c(c1)CN1CCc3c([nH]c4ccccc34)C1=N2
pIC50 (Acetylcholinesterase [2]): 7.54 | pIC50 (Cholinesterase [3]): 6.08

pIC50 [7]: < 5.40
Structure (SMILES): c1ccc(COc2ccc3c(c2)[nH]c2c3ncc3[nH]c4ccccc4c32)cc1

pIC50 [7]: 9.10
Structure (SMILES): COCc1c(C(=O)OC(C)C)ncc2[nH]c3ccc4oc(C(C)C)cc4c3c12

Kb [4]: < 0.3 nM and 0.08 nM | pKi [5]: 9.70
Structure (SMILES): COc1ccc(CC2NCCc3c2[nH]c2c(C)cc(C)cc32)cc1OC (stereo unspecified)

Structure (SMILES): C#Cc1ccc2[nH]c3cnc(C(=O)OC(C)(C)C)cc3c2c1
pKi [8]: 7.00 | pKi [9]: 9.00 | pKi [10]: 5.70 | pKi [11]: 6.68 | pKi [12]: 5.70

pIC50 [7]: 8.40
Structure (SMILES): Brc1ccc2[nH]c3cnc4c5ccccc5[nH]c4c3c2c1

Kb [4]: 0.4 nM | pKi [5]: 9.40
Structure (SMILES): c1ccc2c(CC3NCCc4c3[nH]c3ccccc43)cccc2c1 (stereo unspecified)

Structure (SMILES): C=C[C@H]1[C@@H](/C(=C/O)C(=O)OC)C[C@H]2c3[nH]c4ccccc4c3CCN2[C@H]1O[C@@H]1O[C@H](CO)[C@@H](O)[C@H](O)[C@H]1O
pIC50 (Acetylcholinesterase [2]): 5.72

Structure (SMILES): Cc1nccc2c1[nH]c1cc(OCC(C)C)ccc12
pIC50 [1]: 8.30

Structure (SMILES): c1ccc2c(c1)CN1CCc3c([nH]c4ccccc34)C1=N2
pIC50 (Acetylcholinesterase [2]): 5.47 | pIC50 (Cholinesterase [3]): 6.30

Kb [4]: 0.08 nM | pKi [5]: 10.00
Structure (SMILES): COc1ccc(CC2NCCc3c2[nH]c2cccc(C)c32)cc1OC (stereo unspecified)

Structure (SMILES): Cc1ccc(-[n+]2ccc3c4ccccc4n(C)c3c2)cc1
pIC50 (Acetylcholinesterase [13]): 6.54 and 6.52 | pIC50 (Cholinesterase [14]): 4.49 and 3.94 | pIC50 (Acetylcholinesterase [6]): 6.62
